Results: patent publication US20250114338A1, “TETRAHYDRO-PYRIDO[3,4-b]INDOLE ESTROGEN RECEPTOR MODULATORS AND USES THEREOF” (Genentech, Inc., priority 2014, published 2025)

system: ER-alpha MCF7; experiment: ER-alpha MCF7 HCS EC50; stated as measured by in vitro cell proliferation assays of Examples 902 and 903; assay type: cell-based; settings: Homo sapiens, MCF7, MCF7 cells; Table 2
Method in brief: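 MCF7 cells seeded 1000-2000 cells/well for 16 h, then treated with nine-point 1:2 DMSO dilution series in quadruplicate at 37 °C, 5% CO2 for 4 days. Viable cells quantified by CellTiter-Glo ATP luminescence; EC50 calculated. Controls: fulvestrant at final 100 nM, DMSO 0.2% v/v.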

| SMILES | EC50 [nM] |
| --- | --- |
| CC(O)CC(=O)N1[C@H](c2c(F)cc(OCCN3CC(CF)C3)cc2F)c2[nH]c3ccccc3c2C[C@H]1C (stereo partly drawn) [Example 212, 1-((1R,3R)-1-(2,6-difluoro-4-(2-(3-(fluoromethyl)azetidin-1-yl)ethoxy)phenyl)-3-methyl-3,4-dihydro-1H-pyrido[3,4-b]indol-2(9H)-yl)-3-hydroxybutan-1-one] | 1 |
| C[C@@H]1Cc2c([nH]c3ccccc23)[C@@H](c2c(F)cc(OCCN3CC(CF)C3)cc2F)N1C(=O)C1COC1 [Example 213, [(1R,3R)-1-[2,6-difluoro-4-[2-[3-(fluoromethyl)azetidin-1-yl]ethoxy]phenyl]-3-methyl-1,3,4,9-tetrahydropyrido[3,4-b]indol-2-yl]-(oxetan-3-yl)methanone] | 4 |
| C[C@@H]1Cc2c([nH]c3ccccc23)[C@@H](c2c(F)cc(OCCN3CC(CF)C3)cc2F)N1C(=O)C1CSC1 [Example 214, [(1R,3R)-1-[2,6-difluoro-4-[2-[3-(fluoromethyl)azetidin-1-yl]ethoxy]phenyl]-3-methyl-1,3,4,9-tetrahydropyrido[3,4-b]indol-2-yl]-(thietan-3-yl)methanone] | 4 |
| C[C@@H]1Cc2c([nH]c3ccccc23)[C@@H](c2c(F)cc(OCCN3CC(CF)C3)cc2F)N1C(=O)[C@@H](C)CF [Example 215, (R)-1-((1R,3R)-1-(2,6-difluoro-4-(2-(3-(fluoromethyl)azetidin-1-yl)ethoxy)phenyl)-3-methyl-1,3,4,9-tetrahydro-2H-pyrido[3,4-b]indol-2-yl)-3-fluoro-2-methylpropan-1-one] | 0.335 |
| C[C@@H]1Cc2c([nH]c3ccccc23)[C@@H](c2c(F)cc(OCCN3CC(CF)C3)cc2F)N1CC1CCCC1 [Example 216, (1R,3R)-2-(cyclopentylmethyl)-1-[2,6-difluoro-4-[2-[3-(fluoromethyl)azetidin-1-yl]ethoxy]phenyl]-3-methyl-1,3,4,9-tetrahydropyrido[3,4-b]indole] | 1 |
| C[C@@H]1Cc2c([nH]c3ccccc23)[C@@H](c2c(F)cc(OC3CN(CC4CCC(F)(F)CC4)C3)cc2F)N1CC(C)(C)F [Example 217, (1R,3R)-1-[4-[1-[(4,4-difluorocyclohexyl)methyl]azetidin-3-yl]oxy-2,6-difluoro-phenyl]-2-(2-fluoro-2-methyl-propyl)-3-methyl-1,3,4,9-tetrahydropyrido[3,4-b]indole] | 2 |
| C[C@H](CF)C(=O)N1[C@H](c2c(F)cc(OCCN3CC(CF)C3)cc2F)c2[nH]c3ccccc3c2C[C@H]1C [Example 218, (S)-1-((1R,3R)-1-(2,6-difluoro-4-(2-(3-(fluoromethyl)azetidin-1-yl)ethoxy)phenyl)-3-methyl-1,3,4,9-tetrahydro-2H-pyrido[3,4-b]indol-2-yl)-3-fluoro-2-methylpropan-1-one] | 0.402 |
| C[C@@H]1Cc2c([nH]c3ccccc23)[C@@H](c2c(F)cc(OCCN3CC(CF)C3)cc2F)N1C(=O)C1CCO1 (stereo partly drawn) [Example 219, ((1R,3R)-1-(2,6-difluoro-4-(2-(3-(fluoromethyl)azetidin-1-yl)ethoxy)phenyl)-3-methyl-1,3,4,9-tetrahydro-2H-pyrido[3,4-b]indol-2-yl)(oxetan-2-yl)methanone] | 35 |
| C[C@@H]1Cc2c([nH]c3ccccc23)[C@@H](c2c(F)cc(OCCN3CC(CF)C3)cc2F)N1 [Example 220, (1R,3R)-1-[2,6-difluoro-4-[2-[3-(fluoromethyl)azetidin-1-yl]ethoxy]phenyl]-3-methyl-2,3,4,9-tetrahydro-1H-pyrido[3,4-b]indole] | 7 |
| C[C@@H]1Cc2c([nH]c3ccccc23)[C@@H](c2ccc(OCCN3CC(CF)C3)cc2)N1C(=O)C(C)(C)F [Example 221, 2-fluoro-1-[(1R,3R)-1-[4-[2-[3-(fluoromethyl)azetidin-1-yl]ethoxy]phenyl]-3-methyl-1,3,4,9-tetrahydropyrido[3,4-b]indol-2-yl]-2-methyl-propan-1-one] | 180 |
| C[C@@H]1Cc2c([nH]c3ccccc23)[C@@H](c2c(F)cc(OC3CN(CCCF)C3)cc2F)N1C(=O)C(C)(C)F [Example 222, 1-[(1R,3R)-1-[2,6-difluoro-4-[1-(3-fluoropropyl)azetidin-3-yl]oxy-phenyl]-3-methyl-1,3,4,9-tetrahydropyrido[3,4-b]indol-2-yl]-2-fluoro-2-methyl-propan-1-one] | 0.4 |
| C[C@@H]1Cc2c([nH]c3ccccc23)[C@@H](c2c(F)cc(OCCN3CC(CF)C3)cc2F)N1C(=O)CN(C)C [Example 223, 1-[(1R,3R)-1-[2,6-difluoro-4-[2-[3-(fluoromethyl)azetidin-1-yl]ethoxy]phenyl]-3-methyl-1,3,4,9-tetrahydropyrido[3,4-b]indol-2-yl]-2-(dimethylamino)ethanone] | 38 |
| C[C@@H]1Cc2c([nH]c3ccccc23)[C@@H](c2c(F)cc(OC3CN(CC4(F)CC4)C3)cc2F)N1CC(C)(C)F [Example 224, (1R,3R)-1-[2,6-difluoro-4-[1-[(1-fluorocyclopropyl)methyl]azetidin-3-yl]oxy-phenyl]-2-(2-fluoro-2-methyl-propyl)-3-methyl-1,3,4,9-tetrahydropyrido[3,4-b]indole] | 0.316 |
| C[C@@H]1Cc2c([nH]c3ccccc23)[C@@H](c2c(F)cc(OC3CN(CCCF)C3)cc2F)N1C(=O)C1(F)CCC1 [Example 225, [(1R,3R)-1-[2,6-difluoro-4-[1-(3-fluoropropyl)azetidin-3-yl]oxy-phenyl]-3-methyl-1,3,4,9-tetrahydropyrido[3,4-b]indol-2-yl]-(1-fluorocyclobutyl)methanone] | 1 |
| C[C@@H]1Cc2c([nH]c3ccccc23)[C@@H](c2c(F)cc(OC3CN(CCCF)C3)cc2F)N1C(=O)C1(C)CC1 [Example 226, [(1R,3R)-1-[2,6-difluoro-4-[1-(3-fluoropropyl)azetidin-3-yl]oxy-phenyl]-3-methyl-1,3,4,9-tetrahydropyrido[3,4-b]indol-2-yl]-(1-methylcyclopropyl)methanone] | 2 |
| C[C@@H]1Cc2c([nH]c3ccccc23)[C@@H](c2c(F)cc(OC3CN(CCCF)C3)cc2F)N1CC1(CF)CC1 [Example 227] | 0.17 |
| C[C@@H]1Cc2c([nH]c3ccccc23)[C@@H](c2c(F)cc(OC3CN(CCCF)C3)cc2F)N1CC1(CO)CC1 [Example 228, [1-[[(1R,3R)-1-[2,6-difluoro-4-[1-(3-fluoropropyl)azetidin-3-yl]oxy-phenyl]-3-methyl-1,3,4,9-tetrahydropyrido[3,4-b]indol-2-yl]methyl]cyclopropyl] methanol] | 1 |
| C[C@@H]1Cc2c([nH]c3ccccc23)[C@H](c2ccc(OCCN3CC(CF)C3)cc2F)N1C(=O)C(C)(C)F [Example 229, 2-fluoro-1-[(1S,3R)-1-[2-fluoro-4-[2-[3-(fluoromethyl)azetidin-1-yl]ethoxy]phenyl]-3-methyl-1,3,4,9-tetrahydropyrido[3,4-b]indol-2-yl]-2-methyl-propan-1-one] | 25 |
| C[C@@H]1Cc2c([nH]c3ccccc23)[C@@H](c2ccc(OCCN3CC(CF)C3)cc2F)N1C(=O)C(C)(C)F [Example 230, 2-fluoro-1-[(1R,3R)-1-[2-fluoro-4-[2-[3-(fluoromethyl)azetidin-1-yl]ethoxy]phenyl]-3-methyl-1,3,4,9-tetrahydropyrido[3,4-b]indol-2-yl]-2-methyl-propan-1-one] | 0.068 |
| C[C@@H]1Cc2c([nH]c3ccccc23)[C@H](c2ccc(OCCN3CC(CF)C3)cc2F)N1S(C)(=O)=O [Example 231, (1S,3R)-1-[2-fluoro-4-[2-[3-(fluoromethyl)azetidin-1-yl]ethoxy]phenyl]-3-methyl-2-methylsulfonyl-1,3,4,9-tetrahydropyrido[3,4-b]indole] | 24 |
| C[C@@H]1Cc2c([nH]c3ccccc23)[C@@H](c2ccc(OCCN3CC(CF)C3)cc2F)N1S(C)(=O)=O [Example 232, (1R,3R)-1-[2-fluoro-4-[2-[3-(fluoromethyl)azetidin-1-yl]ethoxy]phenyl]-3-methyl-2-methylsulfonyl-1,3,4,9-tetrahydropyrido[3,4-b]indole] | 0.192 |
| C[C@@H]1Cc2c([nH]c3ccccc23)[C@@H](c2c(F)cc(OC3CN(CCCF)C3)cc2F)N1C[C@](C)(F)CO [Example 233, 3-((1R,3R)-1-(2,6-difluoro-4-((1-(3-fluoropropyl)azetidin-3-yl)oxy)phenyl)-3-methyl-1,3,4,9-tetrahydro-2H-pyrido[3,4-b]indol-2-yl)-2-fluoro-2-methylpropan-1-ol] | 0.133 |
| C[C@@H]1Cc2c([nH]c3ccccc23)[C@@H](c2c(F)cc(OC3CN(CCCF)C3)cc2F)N1C[C@@](C)(F)CO [Example 234, 3-((1R,3R)-1-(2,6-difluoro-4-((1-(3-fluoropropyl)azetidin-3-yl)oxy)phenyl)-3-methyl-1,3,4,9-tetrahydro-2H-pyrido[3,4-b]indol-2-yl)-2-fluoro-2-methylpropan-1-ol] | 0.18 |
| C[C@@H]1Cc2c([nH]c3ccccc23)[C@H](c2ccc(OCCN3CC(CF)C3)cc2)N1C(=O)C(C)(C)F [Example 235, 2-fluoro-1-[(1S,3R)-1-[4-[2-[3-(fluoromethyl)azetidin-1-yl]ethoxy]phenyl]-3-methyl-1,3,4,9-tetrahydropyrido[3,4-b]indol-2-yl]-2-methyl-propan-1-one] | 24 |
| CC(C)(F)CN1CCc2c([nH]c3ccccc23)[C@H]1c1c(F)cc(OCCN2CC(CF)C2)cc1F [Example 236, (IR)-1-[2,6-difluoro-4-[2-[3-(fluoromethyl)azetidin-1-yl]ethoxy]phenyl]-2-(2-fluoro-2-methyl-propyl)-1,3,4,9-tetrahydropyrido[3,4-b]indole] | 0.182 |
| CC(C)(F)CN1CCc2c([nH]c3ccccc23)[C@@H]1c1c(F)cc(OCCN2CC(CF)C2)cc1F [Example 237, (1S)-1-[2,6-difluoro-4-[2-[3-(fluoromethyl)azetidin-1-yl]ethoxy]phenyl]-2-(2-fluoro-2-methyl-propyl)-1,3,4,9-tetrahydropyrido[3,4-b]indole] | 46 |
